Source: patent US20240317686A1, “RORyT MODULATOR, AND PREPARATION METHOD THEREFOR AND APPLICATION THEREOF” (SHANGHAI PHARMACEUTICALS HOLDING CO., LTD., priority 2020, published 2024)

biological target: T1, RORγt (Homo sapiens, UniProt P51449); assay: Fluorescence resonance energy transfer (FRET) assay of inhibitory activity on RORγt; type: biochemical; details: RORgt-LBD GST with SRC peptide
T1 construct: Prepare 4×RORgt-LBD in 1× buffer
T1 sequence (P51449 269-508 limits assumed): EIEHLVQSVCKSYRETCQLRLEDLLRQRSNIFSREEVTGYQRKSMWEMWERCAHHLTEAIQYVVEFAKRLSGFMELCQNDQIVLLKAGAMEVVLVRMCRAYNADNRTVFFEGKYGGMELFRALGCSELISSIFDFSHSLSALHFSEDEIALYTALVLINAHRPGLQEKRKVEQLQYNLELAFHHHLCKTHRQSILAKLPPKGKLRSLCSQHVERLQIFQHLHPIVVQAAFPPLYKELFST
Experimental: Fluorescence resonance energy transfer (FRET) experiment was performed to assay the inhibitory activity of the compound of the present invention on RORγt.
1) Preparation of DMSO stock solutions of the compounds: All compounds were dissolved in DMSO to prepare 10 mM stock solutions.
2) Compound storage: After the compound was dissolved in DMSO, the solution can be stored in a desiccator at room temperature for three months. For long-term storage, the solution should be put in a −20° C. refrigerator.
3) Preparation of working solution: • a) Positive control compound AZD0284: Starting from 500 µM, the solution was diluted serially by 3-folds with DMSO to obtain a 10-concentration gradient, each concentration with 3 replicate wells. 2 wells were pipetted. The gradiently diluted compound was diluted in a reaction buffer to obtain a 4× working solution (starting from 40 μM, diluted gradiently by 3-folds) of the positive control compound. • b) Compounds to be tested: Starting from 500 μM, the solution was diluted serially by 3-folds with DMSO to obtain a 10-concentration gradient, each concentration with 3 replicate wells. 2 wells were pipetted. The gradiently diluted compound was diluted in a reaction buffer to obtain a 4× working solution ([…], diluted gradiently by 3-folds) of the compounds to be tested. • c) Prepare a 4× negative control (8% DMSO). • d) Centrifuge the plate at 1000 rpm for 1 min.
1) Prepare 4× serially diluted compounds in 1× buffer.
2) Add 5 μl of the 4× serially diluted compound (prepared in step 1) to a 384 assay plate (784075, Greiner).
3) Prepare 4×RORgt-LBD in 1× buffer.
4) Add 5 μl of the 4×RORgt-LBD (prepared in step 3) to the 384 assay plate (prepared in step 2).
5) Incubate the assay plate for 15 min at room temperature, protected from light.
6) Prepare a 2× mixture of SRC, anti-GST Eu and streptavidin-d2 in 1× […].
7) Add 10 μl of the 2× mixture (prepared in step 6) to the 384 assay plate (prepared in step 4).
8) Centrifuge the 384 assay plates at 1000 g for 1 min.
9) Incubate for 3 h at room temperature, protected from light.
10) Read the plate at wavelengths of 665 nm and 615 nm on an Envision 2104 plate reader.
Relative ratio (RR): Calculate the relative ratio (response value at 665 nm/response value at 615 nm-response value in blank background) of each well.
Inhibition rate %=[1−(fluorescence detection value of the compound−fluorescence detection average of the positive compound)/(fluorescence detection average of the negative control−fluorescence detection average of the positive compound)]×100
Calculate the IC50 and dose-response curve of the compound: The IC50 and dose-response curve of the compound were obtained via Graphpad 8.0 by calculating the inhibition rate of the compound and the log value of the compound concentration.

| Compound | IC50 |
| --- | --- |
| CCS(=O)(=O)c1ccc(CC(=O)Nc2ccc(C(=O)C(C)(C)c3cccc(Cl)c3)nc2)cc1 [Compound I-1, N-[6-[2-(3-chlorophenyl)-2-methyl-propionyl]-3-pyridyl]-2-(4-ethylsulfonylphenyl)acetamide] | 1 to 10 nM |
| CCS(=O)(=O)c1ccc(CC(=O)Nc2ccc(C(=O)C(C)(C)c3ccc(Cl)cc3)cn2)cc1 [Compound I-2, N-[5-[2-(4-chlorophenyl)-2-methyl-propionyl]-2-pyridyl]-2-(4-ethylsulfonylphenyl)acetamide] | 10 to 50 nM |
| CCS(=O)(=O)c1ccc(CC(=O)Nc2ccc(C(=O)C(C)(C)c3ccc(Cl)cc3)nc2)cc1 [Compound I-3, N-[6-[2-(4-chlorophenyl)-2-methylpropionyl]-3-pyridyl]-2-(4-ethylsulfonylphenyl)acetamide] | 10 to 50 nM |
| CCS(=O)(=O)c1ccc(CC(=O)Nc2ccc(C(=O)C(C)(C)c3ccc(F)cc3)nc2)cc1 [Compound I-4] | 1 to 10 nM |
| CCS(=O)(=O)c1ccc(CC(=O)Nc2ccc(C(=O)C(C)(C)c3ccc(Br)cc3)nc2)cc1 [Compound I-5] | 1 to 10 nM |
| CCS(=O)(=O)c1ccc(CC(=O)Nc2ccc(C(=O)C(C)(C)c3ccc(F)c(Cl)c3)nc2)cc1 [Compound I-6, N-(6-(2-(3-chloro-4-fluorophenyl)-2-methylpropionyl)pyridin-3-yl)-2-(4-(ethylsulfonyl)phenyl) acetamide] | 1 to 10 nM |
| CCS(=O)(=O)c1ccc(CC(=O)Nc2ccc(C(=O)C(C)(C)c3cccnc3)nc2)cc1 [Compound I-7, 2-(4-(ethylsulfonyl)phenyl)-N-(6-(2-methyl-2-(pyridin-3-yl)propanoyl)pyridin-3-yl)acetamide] | 10 to 50 nM |
| CCS(=O)(=O)c1ccc(CC(=O)Nc2ccc(C(=O)C3(c4ccc(Cl)cc4)CCC3)nc2)cc1 [Compound I-8, N-(6-(1-(4-chlorophenyl)cyclobutane-1-carbonyl)pyridin-3-yl)-2-(4-(ethylsulfonyl)phenyl)acetamide] | 1 to 10 nM |
| CCS(=O)(=O)c1ccc(CC(=O)Nc2ccc(C(=O)C(C)(C)c3cccc(C#N)c3)nc2)cc1 [Compound I-9, N-[6-[2-(3-cyanophenyl)-2-methylpropionyl]-3-pyridyl]-2-(4-ethylsulfonylphenyl)acetamide] | 1 to 10 nM |
| CCS(=O)(=O)c1ccc(CC(=O)Nc2ccc(C(=O)C(C)(C)c3cccc(Br)c3)nc2)cc1 [Compound I-10, N-[6-[2-(3-bromophenyl)-2-methylpropionyl]-3-pyridyl]-2-(4-ethylsulfonylphenyl)acetamide] | 1 to 10 nM |
| CCS(=O)(=O)c1ccc(CC(=O)Nc2ccc(C(=O)C3(c4ccc(Cl)cc4)CC3)nc2)cc1 [Compound I-11, N-(6-(1-(4-chlorophenyl)cyclopropane-1-carbonyl)pyridin-3-yl)-2-(4-(ethylsulfonyl)phenyl)acetamide] | 1 to 10 nM |
| CCS(=O)(=O)c1ccc(CC(=O)Nc2ccc(C(=O)C(C)(C)c3ccc(F)cc3F)nc2)cc1 [Compound I-12, N-(6-(2-(2,4-difluorophenyl)-2-methylpropionyl)pyridin-3-yl)-2-(4-(ethylsulfonyl)phenyl)acetamide] | 1 to 10 nM |
| CCS(=O)(=O)c1ccc(CC(=O)Nc2ccc(C(=O)C(C)(C)c3ccc(C(F)(F)F)cc3)nc2)cc1 [Compound I-13] | 1 to 10 nM |
| CCS(=O)(=O)c1ccc(CC(=O)Nc2ccc(C(=O)C(C)c3ccc(Cl)cc3)nc2)cc1 (centres unmarked) [Compound I-14, N-(6-(2-(4-chlorophenyl)propionyl)pyridin-3-yl)-2-(4-(ethylsulfonyl)phenyl)acetamide] | 1 to 10 nM |
| CCS(=O)(=O)c1ccc(CC(=O)Nc2ccc(C(=O)C(C)(C)c3ccc(F)c(Br)c3)nc2)cc1 [Compound I-15] | 1 to 10 nM |
| CCS(=O)(=O)c1ccc(CC(=O)Nc2ccc(C(=O)C(C)(C)c3ccncc3)nc2)cc1 [Compound I-19] | 1 to 10 nM |
| CCS(=O)(=O)c1ccc(CC(=O)Nc2ccc(C(=O)C(C)(C)c3ccccn3)nc2)cc1 [Compound I-20, 2-(4-(ethylsulfonyl)phenyl)-N-(6-(2-methyl-2-(pyridin-2-yl)propanoyl)pyridin-3-yl)acetamide] | 10 to 50 nM |
